# Reference: patent US20120196828A1, “SENSITIZATION OF CANCER CELLS TO TREATMENT” (priority 2011, published 2012)
# pKd: −log10 of the molar value. Values joined by “and” are separate entries in the source; they are usually repeats but may differ in a detail not shown here. Equal values may be shown once.
# Columns and labels:
# [1] = Body weight, deaths and clinical observations in the BxPC-3 xenograft study; conditions: for Starting Weight: baseline body weight, female athymic nude mice, BxPC-3 xenograft study
# Method: (§1) All experiments were conducted on female athymic nude mice (Hsd:Athymic Nude-Foxn1nu) supplied by Harlan (Indianapolis, Ind.). Mice were received at four weeks of age, 12-15 grams in weight, and were acclimated for seven days prior to handling. The mice were housed in microisolator cages (Lab Products, Seaford, Del.) and maintained under specific pathogen-free conditions. All procedures were carried out under appropriate institutional guidelines for animal care.
# (§2) Seven days following inoculation, tumors were measured using calipers and tumor weight was calculated using the animal study management software, Study Director V.1.7.54 k (Study Log). See Britten C D, et al. Enhanced antitumor activity of 6-hydroxymethylacylfulvene in combination with irinotecan and 5-fluorouracil in the HT29 human colon tumor xenograft model. Cancer Res 59:1049-1053, 1999. […] Body weights were recorded when the mice were randomized and were taken twice weekly thereafter in conjunction with tumor measurements, on each of Days 1, 4, 8, 11, 15, 18, 22, 26, 30, 33, and 36.
# (§3) The study was terminated when the vehicle control reached an endpoint of 1500 mg, on Day 36.
# [2] = test system: BxPC-3 Human Pancreas Tumor Xenograft; assay: BxPC-3 human pancreas tumor xenograft model: tumor weight and tumor growth inhibition; format: in vivo, mouse; conditions: for Day 26 Tumor Weight: mean ± Std Err, treatment administered until Day 26
# Method: Compounds tested in the experiment were as follows. […] A concentration of 4.8 mg/ml was formulated to deliver a 24 mg/kg dose at a 5 ml/kg dose volume when administered subcutaneously. […] Nab-paclitaxel was manufactured by Abraxis BioScience LLC (Bridgewater, N.J.) and diluted in a 0.9% NaCl solution to a concentration of 1.5 mg/ml to deliver 15 mg/kg, in a 10 ml/kg dose volume. All standard agent preparations were made fresh prior to their administration.
# BxPC-3 cells were obtained and prepared as follows. The BxPC-3 pancreas tumor cell line was received from American Type Culture Collection (ATCC, Manassas, Va.). Cultures were maintained in RPMI 1640 medium (Hyclone, Logan, Utah) supplemented with 5% fetal bovine serum. The cells were housed in a 5% CO2 atmosphere. The cultures were expanded in tissue culture flasks at a 1:3 split ratio until a sufficient amount of cells were harvested.
# as §1
# BxPC-3 Human Pancreas Tumor Xenograft Model: Female athymic nude mice per treatment condition were inoculated subcutaneously in the right flank with 0.1 ml of a 50% RPMI 1640/50% Matrigel™ (BD Biosciences, Bedford, Mass.) mixture containing a suspension of BxPC-3 tumor cells (approximately 5×10^6 cells/mouse).
# as §2, §3
# Mean tumor growth inhibition (TGI) was calculated utilizing Formula A below (deaths were not included in the TGI calculations).
# All statistical analyses in the xenograft study were performed with GraphPad Prism® v4 software.
# anti-thrombin III = anti-thrombin III (Homo sapiens, UniProt P01008); conditions: cited from earlier work
# anti-thrombin III, sequence (P01008 33-464, species assumed): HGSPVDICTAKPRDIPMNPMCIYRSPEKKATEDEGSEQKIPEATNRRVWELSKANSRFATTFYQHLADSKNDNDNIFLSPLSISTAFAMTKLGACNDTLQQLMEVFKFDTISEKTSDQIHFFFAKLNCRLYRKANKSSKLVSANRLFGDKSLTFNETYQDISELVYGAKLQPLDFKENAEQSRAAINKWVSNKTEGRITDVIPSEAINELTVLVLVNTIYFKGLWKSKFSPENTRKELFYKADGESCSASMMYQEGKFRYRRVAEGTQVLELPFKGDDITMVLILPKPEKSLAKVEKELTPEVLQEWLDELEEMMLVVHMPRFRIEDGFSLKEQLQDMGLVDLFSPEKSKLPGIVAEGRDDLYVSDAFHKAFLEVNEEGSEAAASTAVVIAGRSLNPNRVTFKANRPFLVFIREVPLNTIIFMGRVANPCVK
# [3] = total deaths on or before Day 26, N = 10 per group
# [4] = ANOVA with Tukey's Multiple Comparison Test
# [5] = Day 26, group mean, dosing per Table 1
compound,measurement,setting,value
Nc1ccn([C@@H]2O[C@H](CO)[C@@H](O)C2(F)F)c(=O)n1 [Gemcitabine],Day 1 Average Weight,[1],22.48 g
same,Day 4 Average Weight,[1]; Day 4,21.76 g
same,Day 8 Average Weight,[1]; Day 8,20.91 g
same,Day 11 Average Weight,[1],20.52 g
same,Day 15 Average Weight,[1],21.70 g
same,Day 18 Average Weight,[1]; Day 18,23.15 g
same,Day 22 % Weight Loss or Gain,"[1]; Day 22, vs starting weight",8.59%
same,Day 26 Average Weight,[1]; Table 13 Day 26,24.21 g
same,Day 26 % Weight Loss or Gain,"[1]; Table 13 Day 26, vs starting weight",7.70%
same,Starting Weight,[1],22.48 g
same,Maximum weight loss,[1]; body weight of mice,8.7%
same,Day 4 % Weight Loss or Gain,"[1]; mouse, in vivo",−3.20%
same,Day 8 % Weight Loss or Gain,"[1]; mouse, in vivo",−6.98%
same,Day 11 % Weight Loss or Gain,"[1]; mouse, in vivo",−8.72%
same,Day 15 % Weight Loss or Gain,"[1]; mouse, in vivo",−3.47%
same,Day 18 % Weight Loss or Gain,"[1]; mouse, in vivo",2.98%
same,Day 22 % Weight Loss or Gain,"[1]; mouse, in vivo",7.74%
same,Day 22 Average Weight,"[1]; mouse, in vivo",24.22 g
same,Day 26 % Weight Loss or Gain,"[1]; mouse, in vivo",7.96%
same,Day 26 Average Weight,"[1]; mouse, in vivo",24.27 g
same,Day 30 % Weight Loss or Gain,"[1]; mouse, in vivo",7.61%
same,Day by which the mice recovered their weight,"[1]; mouse, in vivo",≤ 18 days
same,Day on which maximum weight loss was reached,"[1]; mouse, in vivo",11 days
same,Deaths,[1]; [3],0
same,Deaths,"[1]; total deaths on or before Day 36, n = 10 per group",0
same,Difference in tumor weight on Day 26 compared to vehicle control,[2]; [4],No significant difference
same,Difference in tumor weight on Day 36 compared to vehicle control,[2]; [4],No significant difference
same,"Mean tumor weight, Day 1","[2]; Day 1 (randomization), group mean, dosing per Table 1",124.3 mg
same,"Median tumor weight, Day 1","[2]; Day 1 (randomization), group median, dosing per Table 1",121.1 mg
same,"Tumor weight, individual mouse, Day 1","[2]; Day 1 (randomization), individual mouse, dosing per Table 1 (ODSH 24, oxaliplatin 10, gemcitabine 80, nab-paclitaxel 15 mg/kg)",132 mg and 139 mg and 126 mg and 104 mg and 107 mg and 111 mg and 116 mg and 166 mg and 146 mg and 96 mg
same,"Mean tumor weight, Day 4","[2]; Day 4, group mean, dosing per Table 1",152.5 mg
same,"Median tumor weight, Day 4","[2]; Day 4, group median, dosing per Table 1",140.2 mg
same,"Tumor weight, individual mouse, Day 4","[2]; Day 4, individual mouse, dosing per Table 1",189 mg and 214 mg and 126 mg and 122 mg and 131 mg and 133 mg and 146 mg and 176 mg and 155 mg and 135 mg
same,"Mean tumor weight, Day 8","[2]; Day 8, group mean, dosing per Table 1",162.2 mg
same,"Median tumor weight, Day 8","[2]; Day 8, group median, dosing per Table 1",147.4 mg
same,"Tumor weight, individual mouse, Day 8","[2]; Day 8, individual mouse, dosing per Table 1",193 mg and 282 mg and 129 mg and 130 mg and 125 mg and 161 mg and 175 mg and 180 mg and 134 mg
same,"Mean tumor weight, Day 11","[2]; Day 11, group mean, dosing per Table 1",198.2 mg
same,"Median tumor weight, Day 11","[2]; Day 11, group median, dosing per Table 1",191.0 mg
same,"Tumor weight, individual mouse, Day 11","[2]; Day 11, individual mouse, dosing per Table 1",235 mg and 328 mg and 146 mg and 145 mg and 119 mg and 150 mg and 202 mg and 242 mg and 234 mg and 180 mg
same,"Mean tumor weight, Day 15","[2]; Day 15, group mean, dosing per Table 1",263.8 mg
same,"Median tumor weight, Day 15","[2]; Day 15, group median, dosing per Table 1",259.2 mg
same,"Tumor weight, individual mouse, Day 15","[2]; Day 15, individual mouse, dosing per Table 1",319 mg and 375 mg and 211 mg and 218 mg and 181 mg and 228 mg and 245 mg and 288 mg and 300 mg and 274 mg
same,"Mean tumor weight, Day 18","[2]; Day 18, group mean, dosing per Table 1",332.1 mg
same,"Median tumor weight, Day 18","[2]; Day 18, group median, dosing per Table 1",340.1 mg
same,"Tumor weight, individual mouse, Day 18","[2]; Day 18, individual mouse, dosing per Table 1",413 mg and 379 mg and 258 mg and 267 mg and 224 mg and 269 mg and 441 mg and 376 mg and 389 mg and 304 mg
same,"Mean tumor weight, Day 22","[2]; Day 22, group mean, dosing per Table 1",459.4 mg
same,"Median tumor weight, Day 22","[2]; Day 22, group median, dosing per Table 1",451.9 mg
same,"Tumor weight, individual mouse, Day 22","[2]; Day 22, individual mouse, dosing per Table 1",621 mg and 514 mg and 372 mg and 400 mg and 350 mg and 332 mg and 592 mg and 509 mg and 500 mg and 404 mg
same,"Mean tumor weight, Day 26",[2]; [5],594.7 mg
same,"Median tumor weight, Day 26","[2]; Day 26, group median, dosing per Table 1",605.8 mg
same,"Tumor weight, individual mouse, Day 26","[2]; Day 26, individual mouse, dosing per Table 1",797 mg and 739 mg and 468 mg and 534 mg and 431 mg and 389 mg and 730 mg and 628 mg and 647 mg and 583 mg
same,Day 26 Tumor Weight,[2]; Day 26,594.7 ± 43.8 mg
same,"Mean tumor weight, Day 30","[2]; Day 30, group mean of surviving mice, dosing per Table 1",874.3 mg
same,"Median tumor weight, Day 30","[2]; Day 30, group median, dosing per Table 1",858.0 mg
same,"Tumor weight, individual mouse, Day 30","[2]; Day 30, individual mouse, dosing per Table 1","1,121 mg and 1,008 mg and 674 mg and 860 mg and 667 mg and 589 mg and 1,150 mg and 856 mg and 992 mg and 826 mg"
same,"Mean tumor weight, Day 33","[2]; Day 33, group mean of surviving mice, dosing per Table 1","1,044.2 mg"
same,"Median tumor weight, Day 33","[2]; Day 33, group median, dosing per Table 1","1,033.3 mg"
same,"Tumor weight, individual mouse, Day 33","[2]; Day 33, individual mouse, dosing per Table 1","1,367 mg and 1,132 mg and 878 mg and 1,036 mg and 936 mg and 624 mg and 1,275 mg and 1,030 mg and 1,158 mg and 1,008 mg"
same,Day 36 Tumor Weight,"[2]; Day 36, treatment administered until Day 35",1288.8 ± 74.3 mg
same,"Median tumor weight, Day 36","[2]; Day 36, group median, dosing per Table 1","1,306.7 mg"
same,"Tumor weight, individual mouse, Day 36","[2]; Day 36, individual mouse, dosing per Table 1","1,573 mg and 1,368 mg and 963 mg and 1,347 mg and 1,106 mg and 923 mg and 1,596 mg and 1,482 mg and 1,267 mg and 1,265 mg"
same,Day 36 % TGI,"[2]; Day 36 vs Day 1, relative to vehicle control (Group 1), deaths not included",16.8%
O=C1[O][Pt]2([NH][C@@H]3CCCC[C@H]3[NH]2)[O]C1=O [Oxaliplatin],Day 1 Average Weight,[1],20.82 g
same,Day 4 % Weight Loss or Gain,"[1]; Day 4, vs starting weight",−2.02%
same,Day 8 % Weight Loss or Gain,"[1]; Day 8, vs starting weight",−0.82%
same,Day 11 Average Weight,[1],20.12 g
same,Day 15 Average Weight,[1],20.81 g
same,Day 15 % Weight Loss or Gain,"[1]; Day 15, vs starting weight",−0.05%
same,Day 18 % Weight Loss or Gain,"[1]; Day 18, vs starting weight",−1.78%
same,Starting Weight,[1],20.82 g
same,Day bruising of the tails was first observed,"[1]; mouse, in vivo",11 days
same,Mice demonstrating bruising on the tails or abdomen (site of injection),[1]; of ten mice,One mouse
same,Deaths,[1]; [3],0
same,Difference in tumor weight on Day 26 compared to vehicle control,[2]; [4],No significant difference
same,"Mean tumor weight, Day 26",[2]; [5],635.0 mg
same,Day 26 Tumor Weight,[2]; Day 26,635.0 ± 52.3 mg
same,Day 26 % TGI,"[2]; Day 26 vs Day 1, relative to vehicle control (Group 1), deaths not included",8.0% and 8.0 (10/10) %
heparin,pKd,anti-thrombin III,5.81
same,Kd for anti-thrombin III,anti-thrombin III,22 mg/L
